Literature values as cited in patent publication US20110152372A1, “ANHYDROUS PETROLEUM JELLY/ELASTOMER-FREE DEPIGMENTING COMPOSITIONS COMPRISING A SOLUBILIZED PHENOLIC COMPOUND AND A RETINOID” (Galderma Research & Development, priority 2008, published 2011).
Read-outs that look alike come from different tables or passages of the source.

Oc1ccc(O)cc1 [hydroquinone]
Incidence of irritation (10% concentrations): relatively high
Incidence of irritation (concentration of 2%): virtually nonexistent
Incidence of irritation (preparations with a 5% dose): reduces greatly
